# System: phosphorylated ERK in MDA-MB-231 breast cancer cells
# Test: Generation of EC50 data: Western blotting for phosphorylated ERK in EGF-stimulated cells
# Type: cell-based
# Protocol: Effects of compounds in the cell were determined by Western blotting for phosphorylated ERK. MDA-MB-231 breast cancer cells were plated in a 48 well plate at 20,000 cells per well and grown in a 37° humidified CO2 incubator. The following day, the growth media (DMEM+10% fetal bovine serum) was removed and replaced with starve media (DMEM+0.1% fetal bovine serum). Cells were incubated in the starve media for sixteen hours and then treated with a range of compound concentrations for thirty minutes. After incubation with compound, cells were stimulated with 100 ng/ml EGF for five minutes. The cells were then lysed and analyzed by Western blot using a monoclonal antibody raised to phosphorylated ERK. The signal was amplified using a secondary antibody conjugated to a near-IR dye and detected on a Licor Odyssey scanner.
# [1] = Homo sapiens, EC50 classes per legend (pERK, MDA-MB-231 cells), classes D and F also cite IC50
SMILES,EC50 [1] [nM],EC50 (EC50 class) [nM]
O=S(=O)(Nc1c(F)cc(F)c(F)c1Nc1ccc(I)cc1F)C1CC1 [Example 1004],15 to 100,
CC(C)S(=O)(=O)Nc1ccc(F)c(F)c1Nc1ccc(I)cc1F [Example 1002],2 to 15,
CC(C)(C)S(=O)(=O)Nc1ccc(F)c(F)c1Nc1ccc(I)cc1F [Example 1009],15 to 100,
CS(=O)(=O)Nc1ccc(F)c(F)c1Nc1ccc(I)cc1F [Example 1000],< 2,
O=S(=O)(Nc1ccc(F)c(F)c1Nc1ccc(I)cc1F)C1CC1 [Example 1001],< 2,
COc1cc(F)c(F)c(Nc2ccc(I)cc2F)c1NS(=O)(=O)C1(C[C@H](O)CO)CC1 [Example 1021],< 2,
COc1cc(F)c(F)c(Nc2ccc(I)cc2F)c1NS(=O)(=O)C1(C[C@H](O)CO)CC1 [Eg. 98 (S isomer)],,< 2
O=S(=O)(Nc1ccc(F)c(F)c1Nc1ccc(I)cc1F)c1cccs1 [Example 1005],15 to 100,
O=S(=O)(Nc1ccc(F)c(F)c1Nc1ccc(I)cc1F)c1ccco1 [Example 1006],15 to 100,
CCCCS(=O)(=O)Nc1ccc(F)c(F)c1Nc1ccc(I)cc1F [Example 1003],15 to 100,
O=S(=O)(Nc1ccc(F)c(F)c1Nc1ccc(I)cc1F)C1CCCCC1 [Example 1008],15 to 100,
O=S(=O)(Nc1ccc(F)c(F)c1Nc1ccc(I)cc1F)C1CCCC1 [Example 1007],15 to 100,
"COc1cc(F)c(F)c(Nc2ccc(I)cc2F)c1NS(=O)(=O)C1(C[C@@H](O)CO)CC1 [Eg. 99 (R isomer), N—(R)-(3,4-difluoro-2-(2-fluoro-4-iodophenylamino)-6-methoxyphenyl)-1-(2,3-dihydroxypropyl)cyclopropane-1-sulfonamide]",,2 to 15
"COc1cc(F)c(F)c(Nc2ccc(I)cc2F)c1NS(=O)(=O)C1(CC(O)CO)CC1 (racemic) [Eg. 97 (Racemic), N-(3,4-difluoro-2-(2-fluoro-4-iodophenylamino)-6-methoxyphenyl)-1-(2,3-dihydroxypropyl)cyclopropane-1-sulfonamide]",,< 2

# Second part, the compound after the results:
EC50 [1] [nM],EC50 (EC50 class) [nM],SMILES
2 to 15,,COc1cc(F)c(F)c(Nc2ccc(I)cc2F)c1NS(=O)(=O)C1CCC1 [Example 1025]
< 2,,O=S(=O)(Nc1ccc(F)c(F)c1Nc1ccc(I)cc1F)C1(CCO)CC1 [Example 1027]
15 to 100,,CCc1cc(F)c(F)c(Nc2ccc(I)cc2F)c1NS(=O)(=O)C1(CC(O)CO)CC1 (stereo not shown) [Example 1029]
2 to 15,,CC1(S(=O)(=O)Nc2ccc(F)c(F)c2Nc2ccc(I)cc2F)CC1 [Example 1012]
15 to 100,,O=S(=O)(Nc1ccc(F)c(F)c1Nc1ccc(I)cc1F)c1ccsc1 [Example 1016]
2 to 15,,COc1cc(F)c(F)c(Nc2ccc(I)cc2F)c1NS(=O)(=O)C1(C[C@@H](O)CO)CC1 [Example 1022]
15 to 100,,Cc1ccc(S(=O)(=O)Nc2ccc(F)c(F)c2Nc2ccc(I)cc2F)s1 [Example 1011]
15 to 100,,O=S(=O)(Nc1ccc(F)c(F)c1Nc1ccc(I)cc1F)c1ccccc1 [Example 1014]
> 100,,O=S(=O)(Nc1ccc(F)c(F)c1Nc1ccc(I)cc1F)c1ccccc1F [Example 1015]
2 to 15,,COc1cc(F)c(F)c(Nc2ccc(I)cc2F)c1NS(=O)(=O)C1CC1 [Example 1013]
< 2,,COc1cc(F)c(F)c(Nc2ccc(I)cc2F)c1NS(=O)(=O)C1(CC(CO)CO)CC1 [Example 1028]
2 to 15,,Cc1cc(I)ccc1Nc1c(NS(=O)(=O)C2CC2)ccc(F)c1F [Example 1017]
< 2,,COc1cc(F)c(F)c(Nc2ccc(C)cc2C)c1NS(C)(=O)=O [Example 1010]
< 2,,O=S(=O)(Nc1c(F)cc(F)c(F)c1Nc1ccc(I)cc1F)C1(CC(O)CO)CC1 (racemic) [Example 1020]
2 to 15,,O=S(=O)(Nc1c(F)cc(F)c(F)c1Nc1ccc(I)cc1F)C1(C[C@@H](O)CO)CC1 [Example 1024]
< 2,,COc1cc(F)c(F)c(Nc2ccc(I)cc2F)c1NS(=O)(=O)C1(CCO)CC1 [Example 1026]
< 2,,O=S(=O)(Nc1ccc(F)c(F)c1Nc1ccc(I)cc1F)C1(CC(O)CO)CC1 (racemic) [Example 1018]
2 to 15,,O=S(=O)(Nc1c(F)cc(F)c(F)c1Nc1ccc(I)cc1F)C1(C[C@H](O)CO)CC1 [Example 1023]
< 2,,COc1cc(F)c(F)c(Nc2ccc(I)cc2F)c1NS(=O)(=O)C1(CC(O)CO)CC1 (racemic) [Example 1019]
15 to 100,,COCCOc1cc(F)c(F)c(Nc2ccc(I)cc2F)c1NS(=O)(=O)C1(CC(O)CO)CC1 (stereo not shown) [Example 1030]

# Reference: patent US8648116B2, “Derivatives of N-(arylamino) sulfonamides including polymorphs as inhibitors of MEK as well as compositions, methods of use and methods for preparing the same” (Ardea Biosciences, Inc., priority 2005, dated 2014)
